Drawing on patent publication US20120129811A1, “TRICYCLIC INHIBITORS OF PRO-MATRIX METALLOPROTEINASE ACTIVATION” (priority 2010, published 2012), this text covers Kd and IC50 for four compounds.

In general, Kd refers to the concentration at which binding is half-saturated. The term IC50 denotes the concentration that gives 50% inhibition. A lower IC50 goes with higher potency.

Where a name gives a salt, the structure may show the parent alone.

The target of experiment [1] is T1, proMMP9(20-445;ΔFnII) (SEQ ID NO:6) (Homo sapiens, UniProt P14780, DEL216-390).
T1 construct: start methionine (N); made in house; host or cells: E. coli BL21(DE3) RIL
T1 sequence (P14780 with tags, fused parts or gaps DEL216-390): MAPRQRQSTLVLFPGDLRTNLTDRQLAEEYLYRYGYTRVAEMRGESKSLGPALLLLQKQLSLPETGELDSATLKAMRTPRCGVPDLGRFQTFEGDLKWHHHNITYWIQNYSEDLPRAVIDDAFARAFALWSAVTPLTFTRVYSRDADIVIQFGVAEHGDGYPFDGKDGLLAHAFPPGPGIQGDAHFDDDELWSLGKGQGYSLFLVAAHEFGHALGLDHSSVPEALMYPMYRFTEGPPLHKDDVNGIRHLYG
Put plainly: ThermoFluor binding assay with proMMP9(20-445;ΔFnII). In short, it runs like this: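 Protein thermal stability was measured with 2.8 μM proMMP9(20-445;ΔFnII) and 50 μM 1,8-ANS in 50 mM HEPES pH 7.0, 100 mM NaCl, 0.001% Tween-20, 2.5 mM MgCl2, 300 μM CaCl2, across serial compound dilutions. Samples were heated 40–90° C at 1° C/min with fluorescence read at 500 nm. Tm was fitted, and binding was derived from thermodynamic parameters obtained by DSC and ThermoFluor.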
A general note: In DSF a fluorescence change marks the thermal transition of the protein.

In experiment [2] the target is T2, proMMP9(67-444;ΔFnII) (SEQ ID NO:5) (Homo sapiens, UniProt P14780, DEL216-390).
T2 construct: start methionine (N); made in house; host or cells: E. coli BL21(DE3) RIL
T2 sequence (P14780 with tags, fused parts or gaps DEL216-390): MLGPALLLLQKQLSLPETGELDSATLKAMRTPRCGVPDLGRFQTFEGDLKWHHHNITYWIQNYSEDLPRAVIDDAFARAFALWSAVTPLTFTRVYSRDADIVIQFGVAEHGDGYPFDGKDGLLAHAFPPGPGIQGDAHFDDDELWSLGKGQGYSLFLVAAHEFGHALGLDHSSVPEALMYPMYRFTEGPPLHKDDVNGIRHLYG
The experiment is described as follows: ThermoFluor binding assay with proMMP9(67-444;ΔFnII). In short, it runs like this:
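Thermal shift of 3.5 μM proMMP9(67-444;ΔFnII), desalted beforehand, with 50 μM 1,8-ANS in 50 mM HEPES pH 7.0, 100 mM NaCl, 2.5 mM MgCl2, 300 μM CaCl2, 0.001% Tween-20. Heated 40–90 °C at 1 °C/min, fluorescence read at 500 nm; binding fitted from Tm shifts using DSC- and ThermoFluor-derived unfolding parameters.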

For experiment [3], the target named is T3, proMMP13(1-268) (SEQ ID NO:7) (Homo sapiens, UniProt P45452).
T3 construct: 6xHis (C); made in house; host or cells: HEK293 (transient, secreted)
Put plainly: ThermoFluor binding assay with proMMP13(1-268). In short, it runs like this:
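Thermal shift of desalted proMMP13(1-268) at 3.5 μM final, in 50 mM HEPES pH 7.0, 100 mM NaCl, 0.001% Tween-20, 2.5 mM MgCl2, 300 μM CaCl2, with 25 μM 1,8-ANS. Serially diluted compounds heated 40–90° C. at 1° C./min, fluorescence read at 500±25 nm. Tm fitted; binding modeled using DSC-derived thermodynamic parameters.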

For experiment [4], the target named is T4, full-length proMMP9(1-707) activation by catalytic MMP3 (Homo sapiens, UniProt P14780, R574P).
T4 construct: made in house; host or cells: proMMP9: HEK293 (secreted); MMP3: E. coli
Put plainly: proMMP9/MMP3 P126 Activation Assay. In kind it is biochemical. On the procedure: proMMP9/MMP3 P126 Activation Assay
The reaction volume was 50 μL. […] Reactivity of residual MMP3 towards P-126 substrate was minimal under these conditions.

In experiment [5] the target is T5, proMMP13(1-268) activation by plasmin (Homo sapiens, UniProt P45452).
T5 construct: 6xHis (C); made in house; host or cells: HEK293 (proMMP13)
Put plainly: ProMMP13/Plasmin P126 Activation Assay. It is filed as biochemical. On the procedure:
ProMMP13/Plasmin P126 Activation Assay
On the day of assay, proMMP13(1-268) (SEQ ID NO:7) purified from HEK293 cells and plasmin were diluted to 160 nM and 320 nM, respectively, in assay buffer. The reaction volume was 50 μL. […] The plate was sealed and incubated for 40 min at 37° C. […] Plasmin was not reactive towards P-126 substrate under these conditions.

T4 sequence (P14780 20-707 R574P): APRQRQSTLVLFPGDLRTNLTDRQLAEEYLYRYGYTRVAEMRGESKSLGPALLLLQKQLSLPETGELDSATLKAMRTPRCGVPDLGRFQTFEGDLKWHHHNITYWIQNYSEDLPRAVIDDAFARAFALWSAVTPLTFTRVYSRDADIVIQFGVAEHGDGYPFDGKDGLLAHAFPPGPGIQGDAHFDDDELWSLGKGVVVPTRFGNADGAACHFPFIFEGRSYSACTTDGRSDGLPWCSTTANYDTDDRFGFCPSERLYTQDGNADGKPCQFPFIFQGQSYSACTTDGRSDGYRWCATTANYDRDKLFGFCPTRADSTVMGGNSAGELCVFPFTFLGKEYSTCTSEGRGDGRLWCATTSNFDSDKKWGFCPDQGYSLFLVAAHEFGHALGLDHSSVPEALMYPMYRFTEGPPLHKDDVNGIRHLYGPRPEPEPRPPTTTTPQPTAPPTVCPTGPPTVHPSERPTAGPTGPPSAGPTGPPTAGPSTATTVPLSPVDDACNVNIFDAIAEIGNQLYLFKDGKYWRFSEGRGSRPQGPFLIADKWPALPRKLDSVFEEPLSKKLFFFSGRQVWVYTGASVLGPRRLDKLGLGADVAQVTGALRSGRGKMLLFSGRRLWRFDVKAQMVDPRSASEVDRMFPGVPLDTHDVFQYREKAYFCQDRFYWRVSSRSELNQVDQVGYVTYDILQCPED

For `CC(C)Oc1ccc(C(N)=O)cc1Nc1nc2c(ccc3ccncc32)s1` [Example 89, 4-Isopropoxy-3-(thiazolo[5,4-h]isoquinolin-2-ylamino)-benzamide.TFA], the Kd in experiment [1] came out at 3100 nM; in experiment [2] it was 780 nM; in experiment [3] it was 6800 nM. Besides, the IC50 in experiment [4] was 330 nM; in experiment [5] it was 2800 nM.

`COc1ccc(F)cc1Nc1nc2c(ccc3c2ncn3C)s1` [Example 57, (5-Fluoro-2-methoxy-phenyl)-(6-methyl-6H-imidazo[4′,5′:3,4]benzo[2,1-d]thiazol-2-yl)-amine.HCl]: the dissociation constant Kd stood at 230 nM in experiment [1], 35 nM in experiment [2] and 2800 nM in experiment [3]. Moreover, the IC50 in experiment [4] is 70 nM; in experiment [5], around 6000 nM.

Take `COc1cc(C(N)=O)ccc1Nc1nc2c(ccc3c2ncn3C)s1` [Example 51, 3-Methoxy-4-(6-methyl-6H-imidazo[4′,5′:3,4]benzo[2,1-d]thiazol-2-ylamino)-benzamide.HCl]: the Kd in experiment [1] was determined as 3100 nM; in experiment [2], 400 nM; in experiment [3], 8300 nM. For the same compound, the figures for the concentration for half-maximal inhibition (IC50) in experiment [4] and in experiment [5] were 200 nM and above 20000 nM, respectively.

Turning to `CC(C)Oc1ccc(C(N)=O)cc1Nc1nc2c(ccc3c2ncn3C)s1` [Example 22, 4-Isopropoxy-3-(6-methyl-6H-imidazo[4′,5′:3,4]benzo[2,1-d]thiazol-2-ylamino)-benzamide.HCl], the Kd was determined as 170 nM in experiment [1], 100 nM in experiment [2] and 810 nM in experiment [3]. The results for the IC50 in experiment [4] and in experiment [5] were 92 nM and 1900 nM, respectively.
